Assay results reported in patent US8569311B2, “Pyridyl piperidine orexin receptor antagonists” (Merch Sharp & Dohme Corp., priority 2007, dated 2013).

Experiments:
[1] = biological target: OX1R (Rattus norvegicus, UniProt P56718); assay: radioligand binding assay, OX1 receptor; details: membranes prepared from CHO cells expressing the OX1 receptor
Description: (§1) The utility of the compounds in accordance with the present invention as orexin receptor OX1R and/or OX2R antagonists may be readily determined without undue experimentation by methodology well known in the art, including the “FLIPR Ca^2+ Flux Assay” (Okumura et al., Biochem. Biophys. Res. Comm 280:976-981, 2001). In a typical experiment the OX1 and OX2 receptor antagonistic activity of the compounds of the present invention was determined in accordance with the following experimental method. For intracellular calcium measurements, Chinese hamster ovary (CHO) cells expressing the rat orexin-1 receptor or the human orexin-2 receptor, are grown in Iscove's modified DMEM containing 2 mM L-glutamine, […], 1% hypoxanthine-thymidine supplement, 100 U/ml penicillin, 100 ug/ml streptomycin and 10% heat-inactivated fetal calf serum (FCS). The cells are seeded at 20,000 cells/well into Becton-Dickinson black 384-well clear bottom sterile plates coated with poly-D-lysine. All reagents were from GIBCO-Invitrogen Corp. The seeded plates are incubated overnight at 37° C. and 5% CO2. Ala-6,12 human orexin-A as the agonist is prepared as a 1 mM stock solution in 1% bovine serum albumin (BSA) and diluted in assay buffer (HBSS containing 20 mM HEPES, 0.1% BSA and 2.5 mM probenecid, pH7.4) for use in the assay at a final concentration of 70 pM. Test compounds are prepared as 10 mM stock solution in DMSO, then diluted in 384-well plates, first in DMSO, then assay buffer. On the day of the assay, cells are washed 3 times with 100 ul assay buffer and then incubated for 60 min (37° C., 5% CO2) in 60 ul assay buffer containing 1 uM Fluo-4AM ester, 0.02% pluronic acid, and 1% BSA. The dye loading solution is then aspirated and cells are washed 3 times with 100 ul assay buffer. 30 ul of that same buffer is left in each well. Within the Fluorescent Imaging Plate Reader (FLIPR, Molecular Devices), test compounds are added to the plate in a volume of 25 ul, incubated for 5 min and finally 25 ul of agonist is added. Fluorescence is measured for each well at 1 second intervals for 5 minutes and the height of each fluorescence peak is compared to the height of the fluorescence peak induced by 70 pM Ala-6,12 orexin-A with buffer in place of antagonist. For each antagonist, IC50 value (the concentration of compound needed to inhibit 50% of the agonist response) is determined. Alternatively, compound potency can be assessed by a radioligand binding assay (described in Bergman et. al. Bioorg. Med. Chem. Lett. 2008, 18, 1425-1430) in which the inhibition constant (Ki) is determined in membranes prepared from CHO cells expressing either the OX1 or OX2 receptor. The intrinsic orexin receptor antagonist activity of a compound which may be used in the present invention may be determined by these assays.

[2] = biological target: OX2R (Homo sapiens (Human), UniProt O43614); assay: radioligand binding assay, OX2 receptor; details: membranes prepared from CHO cells expressing the OX2 receptor
Chain of OX2R (O43614 whole entry): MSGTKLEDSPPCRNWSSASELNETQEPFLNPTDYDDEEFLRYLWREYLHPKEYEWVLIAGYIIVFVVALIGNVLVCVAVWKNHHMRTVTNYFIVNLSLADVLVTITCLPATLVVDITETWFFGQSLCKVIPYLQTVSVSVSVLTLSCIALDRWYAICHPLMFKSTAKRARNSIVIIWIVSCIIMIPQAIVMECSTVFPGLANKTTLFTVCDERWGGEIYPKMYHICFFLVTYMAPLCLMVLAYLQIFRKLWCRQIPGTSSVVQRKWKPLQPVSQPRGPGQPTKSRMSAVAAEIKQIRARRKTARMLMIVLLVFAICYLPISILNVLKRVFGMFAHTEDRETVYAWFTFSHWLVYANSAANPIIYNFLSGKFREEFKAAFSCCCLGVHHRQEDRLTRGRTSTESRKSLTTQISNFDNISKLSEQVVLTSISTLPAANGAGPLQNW
Description: as §1

Chain of OX1R (P56718 whole entry, looked up): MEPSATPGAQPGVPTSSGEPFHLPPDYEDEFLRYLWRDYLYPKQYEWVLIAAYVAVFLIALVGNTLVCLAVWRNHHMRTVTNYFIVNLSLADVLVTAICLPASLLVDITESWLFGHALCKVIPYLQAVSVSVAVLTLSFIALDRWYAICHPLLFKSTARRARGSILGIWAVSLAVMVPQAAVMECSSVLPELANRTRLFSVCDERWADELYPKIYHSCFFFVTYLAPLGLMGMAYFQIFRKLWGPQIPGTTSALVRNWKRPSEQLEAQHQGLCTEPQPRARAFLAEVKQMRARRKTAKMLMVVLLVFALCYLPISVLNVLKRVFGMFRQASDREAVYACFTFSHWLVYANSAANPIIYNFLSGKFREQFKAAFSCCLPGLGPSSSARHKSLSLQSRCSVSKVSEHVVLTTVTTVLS

Row | Compound | Ki [1] [nM] | Ki [2] [nM]
1 | Cc1ccc(-c2nccs2)c(C(=O)N2C[C@H](COc3ccc(F)cn3)CC[C@H]2C)c1 [Compound 1-1, 5-fluoro-2-({(3R,6R)-6-methyl-1-[5-methyl-2-(1,3-thiazol-2-yl)benzoyl]piperidin 3-yl}methoxy)pyridine] | 1.8 | 0.24
2 | C[C@@H]1CC[C@@H](COc2ccc(F)cn2)CN1C(=O)c1ccccc1-n1nccn1 [Compound 1-4, 5-fluoro-2-({(3R,6R)-6-methyl-1-[2-(2H-1,2,3-triazol-2-yl)benzoyl]piperidin-3-yl}methoxy)pyridine] | 12 | 0.37
3 | C[C@@H]1CC[C@@H](COc2ccc(F)cn2)CN1C(=O)c1cc(F)ccc1-n1nccn1 [Compound 1-8, 5-fluoro-2-({(3R,6R)-1-[5-fluoro-2-(2H-1,2,3-triazol-2-yl)benzoyl]-6-methylpiperidin-3-yl}methoxy)pyridine] | 6.8 | 0.5
4 | Cc1ccc(-c2ccccc2)c(C(=O)N2C[C@H](COc3ccc(F)cn3)CC[C@H]2C)c1 [Compound 1-10, 5-fluoro-2-({(3R,6R)-6-methyl-1-[(4-methylbiphenyl-2-yl)carbonyl]piperidin-3-yl}methoxy)pyridine] | 0.71 | 0.08
5 | Cc1ccc(-c2ccccn2)c(C(=O)N2C[C@H](COc3ccc(F)cn3)CC[C@H]2C)c1 [Compound 1-15, 5-fluoro-2-{[(3R,6R)-6-methyl-1-(5-methyl-2-pyridin-2-ylbenzoyl)piperidin-3-yl}methoxy}pyridine] | 3.2 | 0.35
6 | C[C@@H]1CC[C@@H](COc2ccc(F)cn2)CN1C(=O)c1cc(F)ccc1-c1ncccn1 [Compound 1-19, 2-{4-fluoro-2-[((2R,5R)-5-{[(5-fluoropyridin-2-yl)oxy]methyl}-2-methylpiperidin-1-yl)carbonyl]phenyl}pyrimidine] | 10 | 0.53
7 | Cc1ccc(-c2cn[nH]c2)c(C(=O)N2C[C@H](COc3ccc(F)cn3)CC[C@H]2C)c1 [Compound 1-21, 5-fluoro-2-({(3R,6R)-6-methyl-1-[5-methyl-2-(1H-pyrazol-4-yl)benzoyl]piperidin-3-yl}methoxy)pyridine] | 7.1 | 0.48
8 | CCOc1ccccc1C(=O)N1C[C@H](COc2ccc(F)cn2)CC[C@H]1C [Compound 1-24, 2-{[(3R,6R)-1-(2-ethoxybenzoyl)-6-methylpiperidin-3-yl]methoxy}-5-fluoropyridine] | 36 | 1.7
9 | C[C@@H]1CC[C@@H](COc2ccc(F)cn2)CN1C(=O)c1cccc2cc[nH]c12 [Compound 1-27, 7-[((2R,5R)-5-{[(5-fluoropyridin-2-yl)oxy]methyl}-2-methylpiperidin-1-yl)carbonyl]-1H-indole] | 75 | 10
10 | C[C@@H]1CC[C@@H](COc2ccc(F)cn2)CN1C(=O)c1ccccc1-c1ncccn1 [Compound 1-28, 2-{2-[((2R,5R)-5-{[(5-fluoropyridin-2-yl)oxy]methyl}-2-methylpiperidin-1-yl)carbonyl]phenyl}pyrimidine] | 17 | 0.67
11 | C[C@@H]1CC[C@@H](COc2ccc(F)cn2)CN1C(=O)c1c(F)cccc1-c1ncccn1 [Compound 1-34, 2-{3-fluoro-2-[((2R,5R)-5-{[(5-fluoropyridin-2-yl)oxy]methyl}-2-methylpiperidin-1-yl)carbonyl]phenyl}pyrimidine] | 8.2 | 0.68
12 | C[C@@H]1CC[C@@H](COc2ccc(F)cn2)CN1C(=O)c1ccccc1-n1cccn1 [Compound 1-37, 5-fluoro-2-({(3R,6R)-6-methyl-1-[2-(1H-pyrazol-1-yl)benzoyl]piperidin-3-yl}methoxy)pyridine] | 55 | 1.5
13 | C[C@@H]1CC[C@@H](COc2ccc(F)cn2)CN1C(=O)c1ncccc1-c1ccccc1 [Compound 1-38, 2-[((2R,5R)-5-{[(5-fluoropyridin-2-yl)oxy]methyl}-2-methylpiperidin-1-yl)carbonyl]-3-phenylpyridine] | 86 | 1.9
14 | C[C@@H]1CC[C@@H](COc2ccc(Br)nc2)CN1C(=O)c1ccccc1-n1nccn1 [Compound 1-42, 2-bromo-5-({(3R,6R)-6-mcthyl-1-[2-(2H-1,2,3-triazol-2-yl)benzoyl]piperidin-3-yl}methoxy)pyridine] | 64 | 3.8
15 | C[C@@H]1CC[C@@H](COc2ccnc(Cl)c2)CN1C(=O)c1ccccc1-n1nccn1 [Compound 1-43, 2-chloro-4-({(3R,6R)-6-methyl-1-[2-(2H-1,2,3-triazol-2-yl)benzoyl]piperidin-3-yl}methoxy)pyridine] | 140 | 22
16 | Cc1ccc(-n2nccn2)c(C(=O)N2CCCC(COc3ccc(F)nc3)C2)c1 (stereo not drawn) [Compound 2-1] | 96 | 29

Further lines, results first:

Row | Ki [1] [nM] | Ki [2] [nM] | Compound
17 | 1 | 0.24 | Cc1ccc(-n2nccn2)c(C(=O)N2C[C@H](COc3ccc(F)cn3)CC[C@H]2C)c1 [Compound A-9, 5-Fluoro-2-({(3R,6R)-6-methyl-1-[5-methyl-2-(2H-1,2,3-triazol-2-yl)benzoyl]piperidin-3-yl}methoxy)pyridine]
18 | 3.3 | 0.54 | Cc1ccc(-c2cnccn2)c(C(=O)N2C[C@H](COc3ccc(F)cn3)CC[C@H]2C)c1 [Compound B-3, 2-{2-[((2R,5R)-5-{[(5-Fluoropyridin-2-yl)oxy]methyl}-2-methylpiperidin-1-yl)carbonyl]-4-methylphenyl}pyrazine]
19 | 22 | 0.67 | Cc1cccc(OC[C@@H]2CC[C@@H](C)N(C(=O)c3ccccc3-n3nccn3)C2)n1 [Compound C-4, 2-Methyl-6-({(3R,6R)-6-methyl-1-[2-(2H-1,2,3-triazol-2-yl)benzoyl]piperidin-3-yl}methoxy)pyridine]
20 | 2.9 | 0.31 | Cc1ccc(-c2ncccn2)c(C(=O)N2C[C@H](COc3ccc(F)cn3)CC[C@H]2C)c1 [Compound E-5, 2-{2-[((2R,5R)-5-{[(5-Fluoropyridin-2-yl)oxy]methyl}-2-methylpiperidin-1-yl)carbonyl]-4-methylphenyl}pyrimidine]
21 | 260 | 410 | C[C@@H]1CC[C@@H](COc2ccc(F)cn2)CN1C(=O)c1cc(C(=O)O)ccc1-n1nccn1 [Compound F-4, 3-[((2R,5R)-5-{[(5-Fluoropyridin-2-yl)oxy]methyl}-2-methylpiperidin-1-yl)carbonyl]-4-(2H-1,2,3-triazol-2-yl)benzoic acid]
22 | 14 | 1.7 | C[C@@H]1CC[C@@H](COc2ccc(F)cn2)CN1C(=O)c1cc(CO)ccc1-n1nccn1 [Compound G-1, [3-[((2R,5R)-5-{[(5-Fluoropyridin-2-yl)oxy]methyl}-2-methylpiperidin-1-yl)carbonyl]-4-(2H-1,2,3-triazol-2-yl)phenyl]methanol]
23 | 84 | 37 | C[C@@H]1CC[C@@H](COc2ccc(F)cn2)CN1C(=O)c1cc(C(=O)O)ccc1-c1ncccn1 [Compound H-4, 3-[((2R,5R)-5-{[(5-fluoropyridin-2-yl)oxy]methyl}-2-methylpiperidin-1-yl)carbonyl]-4-pyrimidin-2-ylbenzoic acid]
24 | 30 | 2 | C[C@@H]1CC[C@@H](COc2ccc(F)cn2)CN1C(=O)c1cc(CO)ccc1-c1ncccn1 [Compound I-7, {3-[((2R,5R)-5-{[(5-Fluoropyridin-2-yl)oxy]methyl}-2-methylpiperidin-1-yl)carbonyl]-4-pyrimidin-2-ylphenyl}methanol]
